Assay results taken from PubChem BioAssay (NCI).
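Dose response: 5 concentrations. Exposure: 48 h. Format: 96-well plates. Endpoint: linear interpolation; highest concentration if not reached. Abbreviation: GI50, concentration required for 50% inhibition of growth. At the TGI there is no net growth.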

Tests used:
Test in all cases: NCI anticancer screen, dose series, 48 h
786-0 renal = tested on: 786-0 renal
CAKI-1 renal = tested on: CAKI-1 renal
K-562 leukemia = tested on: K-562 leukemia
MCF7 breast = tested on: MCF7 breast
RPMI-8226 leukemia = tested on: RPMI-8226 leukemia
SK-MEL-2 melanoma = tested on: SK-MEL-2 melanoma
SK-OV-3 ovarian = tested on: SK-OV-3 ovarian
T-47D breast = tested on: T-47D breast
UO-31 renal = tested on: UO-31 renal

| SMILES | TGI (786-0 renal) | TGI (CAKI-1 renal) | TGI (K-562 leukemia) | TGI (MCF7 breast) | TGI (RPMI-8226 leukemia) | TGI (SK-MEL-2 melanoma) | TGI (SK-OV-3 ovarian) | TGI (T-47D breast) | TGI (UO-31 renal) | GI50 (786-0 renal) | GI50 (CAKI-1 renal) | GI50 (K-562 leukemia) | GI50 (MCF7 breast) | GI50 (RPMI-8226 leukemia) | GI50 (SK-MEL-2 melanoma) | GI50 (SK-OV-3 ovarian) | GI50 (T-47D breast) | GI50 (UO-31 renal) |
| --- | --- | --- | --- | --- | --- | --- | --- | --- | --- | --- | --- | --- | --- | --- | --- | --- | --- | --- |
| O=[N+]([O-])c1ccc(S(=O)(=O)Cc2ccccc2)c([N+](=O)[O-])c1 | 2.98 µM | 3.2 µM | > 100 µM | 3.65 µM | 5.78 µM | 8.62 µM | 13.2 µM | 4.48 µM | 2.95 µM |  |  |  |  |  |  |  |  |  |
| Cc1ccc2c(c1)C(C)Cc1c(ncnc1-n1cnc3ccccc31)N2C (configuration not stated) | 19.8 µM | 17.8 µM | 14.1 µM | 13.1 µM | 15.9 µM | 21.9 µM | 13.5 µM | 32.2 µM | 17.9 µM | 0.737 µM | 0.337 µM | 0.0801 µM | 0.0986 µM | 0.337 µM | 0.547 µM | 0.475 µM | 0.601 µM | 0.939 µM |
| O=C1c2ccccc2-c2c1c1ccccc1c(=O)n2CCCCNCCCn1c2c(c3ccccc3c1=O)C(=O)c1ccccc1-2 | 0.699 µM | 4.21 µM | 9.62 µM | 6.25 µM | 0.755 µM | 15.2 µM | 50 µM | 4.86 µM | 7.23 µM | 0.0318 µM | 0.71 µM | 0.205 µM | 0.345 µM | 0.0193 µM | 3.51 µM | 5.35 µM | 1.32 µM | 0.0557 µM |
| Cc1c(N2CCCC2)cc2c(c1NC(=O)c1ccccc1Cl)C(C)(C)CC2(C)C | 27.8 µM | 26.1 µM | > 100 µM | 28.4 µM | 34.2 µM | 30 µM | 27.2 µM | 24.6 µM | 26.4 µM |  |  |  |  |  |  |  |  |  |
| CCOC(=O)c1c2c(c(O)c3ccccc3c(O)n(Cc3ccc(OC)cc3)c1C)C(=O)C=CC2=O | > 100 µM | > 100 µM | > 100 µM | > 100 µM | > 100 µM | > 100 µM | > 100 µM | > 100 µM | > 100 µM | > 100 µM | > 100 µM | 76.9 µM | > 100 µM | > 100 µM | > 100 µM | > 100 µM | > 100 µM | > 100 µM |
| CCc1nc(N)nc(N)c1-c1ccc(NCCN)c([N+](=O)[O-])c1 | > 100 µM | > 100 µM | > 100 µM | > 78.3 µM | > 88.8 µM | > 100 µM | > 100 µM | > 100 µM | > 100 µM |  |  |  |  |  |  |  |  |  |
| COc1ccc(OC)c(/C=N/NC(=O)Cc2csc3nc(-c4ccc(Br)cc4)cn23)c1 | > 100 µM | 34.2 µM | 6.94 µM | > 100 µM | > 100 µM | > 100 µM | > 100 µM | > 100 µM | > 100 µM | 26.3 µM | 12.6 µM | 2.94 µM | 29.7 µM | 10.3 µM | 89.7 µM | 57.7 µM | 41.2 µM | 60.6 µM |
| N=C(N)c1ccc(OCc2cccc(COc3ccc(C(=N)N)cc3)c2)cc1 | 15.1 µM | 27.2 µM | 19 µM | 14.9 µM | 7.88 µM | > 100 µM | 50.9 µM | > 100 µM | > 100 µM | 4.56 µM | 11.4 µM | 3.62 µM | 4.5 µM | 3.11 µM | 24.2 µM | 18.4 µM | 26.9 µM | 42.1 µM |
